Test results as given in patent publication US20060110385A1, “Means and methods for diagnosing and treating affective disorders” (Affectis Pharmaceuticals AG, priority 2003, published 2006).

Assays:
P2X7R [1] = molecular target: T1, P2X7R (Mus musculus, UniProt Q9Z1M0); experiment: Calcium influx into HT-22 cells (Oregon green AM ester); type: cell-based; details: 100 mM oATP for 1 hour before BzATP
T1 construct: endogenous in cells; host or cells: HT-22 (immortalised mouse hippocampal cell line)
T1 sequence (Q9Z1M0 1-595): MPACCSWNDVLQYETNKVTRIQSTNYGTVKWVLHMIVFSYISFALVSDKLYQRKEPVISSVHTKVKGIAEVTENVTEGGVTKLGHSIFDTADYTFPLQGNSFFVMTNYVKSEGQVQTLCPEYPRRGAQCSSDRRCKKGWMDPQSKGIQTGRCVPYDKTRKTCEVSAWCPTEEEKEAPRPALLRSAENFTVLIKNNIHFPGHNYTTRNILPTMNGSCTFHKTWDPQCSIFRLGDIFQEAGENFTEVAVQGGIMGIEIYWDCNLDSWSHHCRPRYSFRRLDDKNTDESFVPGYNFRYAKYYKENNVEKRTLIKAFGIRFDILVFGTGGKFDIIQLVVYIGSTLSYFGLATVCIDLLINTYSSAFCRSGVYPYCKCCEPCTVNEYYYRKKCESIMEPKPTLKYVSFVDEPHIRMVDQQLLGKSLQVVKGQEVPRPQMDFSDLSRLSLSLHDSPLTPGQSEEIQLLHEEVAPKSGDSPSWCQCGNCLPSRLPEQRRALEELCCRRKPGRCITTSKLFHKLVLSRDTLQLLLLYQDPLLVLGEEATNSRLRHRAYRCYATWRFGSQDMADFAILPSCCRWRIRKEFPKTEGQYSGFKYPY
Excerpt: Since P2X7R is an ATP-gated ion channel which allows the entry of calcium and sodium ions into cells, a method for identifying P2X7R agonist was established by monitoring calcium influx into HT-22 cells. […] Calcium movement into the cells was visualised under a fluorescent microscope with a fluorescein filter (wavelength 492/517 nm). Oregon green AM ester is a fluorescent dye that binds to intracellular calcium.
Activation of P2X7R by the agonist was inhibited by oATP (FIG. 18) as illustrated by the absence of green fluorescence in the cells.

P2X7R [2] = molecular target: T1, P2X7R; experiment: Entry of ethidium bromide into HT-22 cells; type: cell-based; details: pre-incubation 60 minutes with 100 μM o-ATP before agonist and ethidium bromide
Excerpt: Yet another method of measuring P2X7R activity involves the entry of ethidium bromide into P2X7R expressing cells. Activation of P2X7R by an agonist allows the entry of ethidium bromide which binds nuclear DNA and emits a fluorescence signal. Alternatively, the propidium dye YOPRO-1 can be substituted for ethidium bromide. An increase in fluorescence can be used as a measure of P2X7 receptor activation. Therefore, the assay can be used to test and quantify the effect of an agent or compound with agonist properties on P2X7R. In the present example, 10^3 HT-22 cells were seeded per well in a 96-well flat bottom microtitre plates and incubated at 37° C./5% CO2 in DMEM medium containing 10% FCS until the cells attached to the culture surface. […] The number of fluorescent cells which have integrated the ethidium bromide to the DNA can then be counted using a fluorescent microscope (Zeiss, Germany). […] Alternatively, ethidium bromide fluorescence can be measured using a Perkin-Elmer fluorescent plate reader (excitation 520 nm, emission 595 nm, slit widths: Ex 15 nm, Em 20 nm). From the readings obtained, a pIC50 figure can be calculated for each candidate agent or compound. […] The specificity of an agonist for P2X7R can be evaluated by pre-incubation of the cells for 60 minutes with 100 μM o-ATP before adding the agonist and ethidium bromide dye.

DBA/201a mice = experiment: Porsolt's forced swim test after intrahippocampal P2X7R antagonists; type: in vivo, mouse; details: 100 nM KN-62 or 10 μM oATP, 1 μl each side, dentate gyrus, 24 hours after injection
Excerpt: In the present example, the P2X7R antagonists were directly injected into the dentate gyrus region of the hippocampus. Briefly, three months old male mice were bilaterally implanted with guide cannulae (23 gauge, length 8 mm) by means of a stereotactic instrument (David Kopf Instruments). The coordinates, in relation to bregma, were −1.5 mm posterior, ±1.0 mm lateral, and −0.8 mm ventral. Mice were allowed to recover for 10 to 13 days after surgery. Following this recovery period, mice were injected with 1 μl vehicle solution (0.01% DMSO, Sigma), or 100 nM KN-62 (Sigma, prepared in 0.01% DMSO), or 10 μM oATP (Sigma, prepared in PBS) in each side of the brain over a period of 60 seconds. All injections were performed using a 9 mm-31 gauge needle inserted into the guide cannulae and connected via tubing to a 10 μl Hamilton syringe.
The behaviour of individual mice was assessed using the Porsolt's forced swim test 24 hours after injection of vehicle solution, KN-62, or oATP. A pre-exposure of 5 minutes to the test was performed 15-17 minutes after administration of vehicle, KN-62, or oATP. A description of the Porsolt's forced swim test is given in example 9. […] Observed results were verified statistically using one-way MANOVA test.

mice = experiment: Open field test (locomotor activity) after oATP; type: in vivo, mouse; details: 10 μM or 50 μM oATP, 15 minutes after injection, 30 minutes
Description: Locomotor activity in mice treated with control vehicle solution, 10 μM oATP, or 50 μM oATP was assessed 15 minutes after injection by placing individual animal in a dark-grey wooden box (30×30×40 cm). Locomotor activity was monitored for a period of 30 minutes using a video camera. Overall distance travelled by the animals during the testing period was then analysed by means of VideoMot2 computer software (TSE GmbH, Bad Homburg).

`Nc1ncnc2c1ncn2[C@@H](C=O)O[C@@H](C=O)COP(=O)(O)OP(=O)(O)OP(=O)(O)O` [oATP, Oxidized ATP] was tested, and the “activation of P2X7R by the agonist (calcium influx) after antagonist pre-treatment” value (P2X7R [1]) was “inhibited”, the “number of fluorescent cells after antagonist pre-incubation” value (P2X7R [2]) was “reduction in the number of fluorescent cells” and the “active escape attempts (time, frequency, latency of struggling)” value (DBA/201a mice) was “no changes”. For the same molecule, the “passive behaviour (time, frequency, latency of floating)” value (DBA/201a mice) was “no changes” and the “locomotor activity (overall distance travelled)” value (mice) was “No difference in locomotor activity”.
